According to ChEMBL document CHEMBL5550112, “Development of a fluorescent ligand that can illuminate nuclear G-quadruplexes and modulate oncogene expression” (Bioorg Med Chem, 2024):
Active and inactive are the calls of the source. No cut-off for these calls is given here.

What was measured:
Quadruplex DNA [1] = test: Binding affinity to Parallel PS2M G-quadruplex DNA (unknown origin) assessed as increase in fluorescence intensity at 5 uM by fluorescence spectrophotometric analysis; format: nucleic-acid assay
Quadruplex DNA [2] = test: Binding affinity to G-quadruplex DNA in human MDA-MB-231 cells at 2 uM incubated for 30 mins by Hoechst 33342 staining based confocal microscopic analysis; format: cell-based
Quadruplex DNA [3] = test: Binding affinity to 5'-Cy5-labelled c-MYC G-quadruplex DNA (unknown origin) assessed as dissociation constant by fluorescence quenching analysis; format: nucleic-acid assay
HEK-293T [4] = test: Effect on c-MYC gene expression in human HEK293T cells co-transfected with c-Myc promoter luciferase reporter assessed as decrease in c-MYC expression by measuring reduction in firefly luciferase expression at 10 to 20 uM incubated for 24 hrs by firefly luciferase based microplate analysis; format: functional, cell-based; settings: dose 10-20 µM
Quadruplex DNA [5] = test: Displacement of […] from G-quadruplex DNA in human MDA-MB-231 cells assessed as increase in fluorescence at 2 uM preincubated for 30 mins followed by PDS addition and measured after 20 mins by Hoechst 33342 staining based confocal microscopic analysis; format: cell-based; settings: time 50.0 min
Quadruplex DNA [6] = test: Binding affinity to KRAS G-quadruplex DNA (unknown origin) assessed as fluorescence quantum yield by fluorescence spectrophotometric analysis; format: nucleic-acid assay
MDA-MB-231 [7] = test: Induction of cell cycle arrest in human MDA-MB-231 cells assessed as accumulation of cells at S phase at 20 uM incubated for 24 hrs by flow cytometry (reference value: 13 %); format: functional
MDA-MB-231 [8] = test: Induction of cell cycle arrest in human MDA-MB-231 cells assessed as accumulation of cells at G2-M phase at 15 uM incubated for 24 hrs by flow cytometry (reference value: 16.8 %); format: functional
MDA-MB-231 [9] = test: Induction of cell cycle arrest in human MDA-MB-231 cells assessed as accumulation of cells at sub-G1 phase at 15 uM incubated for 24 hrs by flow cytometry (reference value: 0.6 %); format: functional
MDA-MB-231 [10] = test: Induction of cell cycle arrest in human MDA-MB-231 cells assessed as accumulation of cells at sub-G1 phase at 20 uM incubated for 24 hrs by flow cytometry (reference value: 0.6 %); format: functional
Quadruplex DNA [11] = test: Binding affinity to 5'-Cy5-labelled c-MYC G-quadruplex DNA (unknown origin) assessed as decrease in Cy5 fluorescence upto 5 uM by fluorescence quenching analysis; format: nucleic-acid assay
Quadruplex DNA [12] = test: Binding affinity to G-quadruplex DNA in human MDA-MB-231 cells assessed as increase in fluorescence at 2 uM incubated for 30 mins by RNase A digestion based confocal microscopic analysis; format: cell-based
Quadruplex DNA [13] = test: Binding affinity to Parallel CHL1 G-quadruplex DNA (unknown origin) assessed as increase in fluorescence intensity at 5 uM by fluorescence spectrophotometric analysis; format: nucleic-acid assay
Quadruplex DNA [14] = test: Binding affinity to c-MYC G-quadruplex DNA (unknown origin) assessed as decrease in absorption band by measuring red shift at 5 uM by absorption spectra analysis; format: nucleic-acid assay
Quadruplex DNA [15] = test: Binding affinity to KRAS G-quadruplex DNA (unknown origin) assessed as increase in fluorescence by measuring red shift at 5 uM by fluorescence titration spectra analysis; format: nucleic-acid assay
Quadruplex DNA [16] = test: Binding affinity to Parallel VAV1 G-quadruplex DNA (unknown origin) assessed as increase in fluorescence intensity at 5 uM by fluorescence spectrophotometric analysis; format: nucleic-acid assay
Quadruplex DNA [17] = test: Binding affinity to Antiparallel TBA G-quadruplex DNA (unknown origin) assessed as increase in fluorescence intensity at 5 uM by fluorescence spectrophotometric analysis; format: nucleic-acid assay
MDA-MB-231 [18] = test: Inhibition of colony formation in human MDA-MB-231 cells at 1.5 to 6 uM incubated for 3 days by crystal violet staining based analysis; format: functional, cell-based; settings: dose 1.5-6 µM, time 3.0 day
MDA-MB-231 [19] = test: Induction of apoptosis in human MDA-MB-231 cells assessed as downregulation of KRAS protein expression at 10 to 20 uM incubated for 24 hrs by Western blot analysis; format: functional, cell-based; settings: dose 10-20 µM
MDA-MB-231 [20] = test: Induction of apoptosis in human MDA-MB-231 cells assessed as downregulation of KRAS gene expression at 10 to 20 uM incubated for 24 hrs by RT-PCR analysis; format: functional, cell-based; settings: dose 10-20 µM
MDA-MB-231 [21] = test: Induction of cell cycle arrest in human MDA-MB-231 cells assessed as accumulation of cells at sub-G1 phase at 10 uM incubated for 24 hrs by flow cytometry (reference value: 0.6 %); format: functional
Quadruplex DNA [22] = test: Binding affinity to 3'-Cy5-labelled c-MYC G-quadruplex DNA (unknown origin) assessed as decrease in Cy5 fluorescence upto 5 uM by fluorescence quenching analysis; format: nucleic-acid assay
Quadruplex DNA [23] = test: Stabilization of FAM/TAMRA-labelled KRAS G-quadruplex DNA (unknown origin) assessed as change in melting temperature in presence of duplex DNA by FRET assay; format: nucleic-acid assay
DNA = test: Binding affinity to Duplex DNA (unknown origin) assessed as increase in fluorescence by measuring red shift at 5 uM by fluorescence titration spectra analysis; format: nucleic-acid assay
Quadruplex DNA [24] = test: Binding affinity to Antiparallel HRAS G-quadruplex DNA (unknown origin) assessed as increase in fluorescence intensity at 5 uM by fluorescence spectrophotometric analysis; format: nucleic-acid assay
MDA-MB-231 [25] = test: Induction of apoptosis in human MDA-MB-231 cells assessed as […] protein expression at 10 to 20 uM incubated for 24 hrs by Western blot analysis; format: functional, cell-based; settings: dose 10-20 µM
MDA-MB-231 [26] = test: Inhibition of cell migration in human MDA-MB-231 cells at 10 to 20 uM incubated for 24 hrs by reverse-phase microscopy based scratch wound healing assay; format: functional; settings: dose 10-20 µM
HEK-293T [27] = test: Effect on KRAS gene expression in human HEK293T cells co-transfected with KRAS promoter luciferase reporter assessed as decrease in KRAS expression by measuring reduction in firefly luciferase expression at 10 to 20 uM incubated for 24 hrs by firefly luciferase based microplate analysis; format: functional, cell-based; settings: dose 10-20 µM
Quadruplex DNA [28] = test: Binding affinity to c-MYC G-quadruplex DNA (unknown origin) assessed as increase in fluorescence by measuring red shift at 5 uM by fluorescence titration spectra analysis; format: nucleic-acid assay
Quadruplex DNA [29] = test: Binding affinity to KRAS G-quadruplex DNA (unknown origin) assessed as decrease in absorption band by measuring red shift at 5 uM by absorption spectra analysis; format: nucleic-acid assay
Calf thymus DNA = test: Binding affinity to calf thymus DNA (unknown origin) assessed as increase in fluorescence intensity at 5 uM by fluorescence spectrophotometric analysis; settings: Bos taurus
Quadruplex DNA [30] = test: Binding affinity to KRAS G-quadruplex DNA (unknown origin) assessed as dissociation constant by fluorescence spectrophotometric analysis; format: nucleic-acid assay
MDA-MB-231 [31] = test: Induction of cell cycle arrest in human MDA-MB-231 cells assessed as accumulation of cells at G2-M phase at 10 uM incubated for 24 hrs by flow cytometry (reference value: 16.8 %); format: functional
Quadruplex DNA [32] = test: Binding affinity to c-MYC G-quadruplex DNA (unknown origin) assessed as imino proton signal by NMR spectral analysis; format: nucleic-acid assay

Activity (Quadruplex DNA [1]): Active | Kd (Quadruplex DNA [3]): 1100 nM | Activity (Quadruplex DNA [6]): 0.19 | Activity (Quadruplex DNA [11]): Active | Activity (Quadruplex DNA [13]): Active | Activity (Quadruplex DNA [14]): Active | Activity (Quadruplex DNA [15]): Active | Activity (Quadruplex DNA [16]): Active | Activity (Quadruplex DNA [17]): Active | Activity (Quadruplex DNA [22]): Active | ΔTm (Quadruplex DNA [23]): 14 °C | Activity (DNA): Active | Activity (Quadruplex DNA [24]): Active | Activity (Quadruplex DNA [28]): Active | Activity (Quadruplex DNA [29]): Active | Kd (Quadruplex DNA [30]): 500 nM | Activity (Quadruplex DNA [32]): Active
SMILES: CCn1c2ccccc2c2cc(/C=C/c3sc4ccccc4[n+]3C)ccc21.[I-]
Activity (Quadruplex DNA [2]): Active | Activity (HEK-293T [4]): Active | Activity (Quadruplex DNA [5]): inactive | Activity (MDA-MB-231 [7]): 8.6% | Activity (MDA-MB-231 [8]): 10.3% | Activity (MDA-MB-231 [9]): 32.3% | Activity (MDA-MB-231 [10]): 56.7% | Activity (Quadruplex DNA [12]): Active | inhibition (MDA-MB-231 [18]): Active | Activity (MDA-MB-231 [19]): Active | Activity (MDA-MB-231 [20]): Active | Activity (MDA-MB-231 [21]): 3% | Activity (MDA-MB-231 [25]): Active | inhibition (MDA-MB-231 [26]): Active | Activity (HEK-293T [27]): Active | Activity (Calf thymus DNA): Active | Activity (MDA-MB-231 [31]): 16%
